Assay [1] deals with NCI-H358 cells (express KRas G12C), Phospho-ERK. Nature of the assay: Cellular inhibition of KRas G12C: Phospho-ERK in NCI-H358 cells. Type of assay: cell-based. To be noted: Homo sapiens, pERK(Thr202/Tyr204) normalized with GAPDH, NCI-H358 cells, 3 hours, read-out: IC50. The gist of the method: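 IC50 derived by 4-parameter fit of GAPDH-normalized pERK(Thr202/Tyr204) signal, as percent of DMSO control. Signal came from in-cell immunodetection with infrared secondaries after 3 h compound exposure of KRas G12C NCI-H358 cells at 0.5% DMSO.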

Assay [2] has as its target KRas G12C (Homo sapiens, UniProt P01116, C118S/C51S/C80L/G12C). The assay can be described thus: KRas G12C Modification Assay (LCMS detection of covalent adduct). The format is binding. The settings on record: normalized percent of control; tested at 5 μM concentration for 3 hours. The gist of the method:
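Covalent modification was read by reverse-phase LC/MS of intact protein after compound exposure, each reaction stopped at its time point with 25 mM acetic acid. Unmodified-protein signal, taken as percent of total, was normalised to untreated protein and reported as POC.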

What is called IC50 is the concentration needed to halve the response being measured.

Like-named read-outs stand apart in the source and are kept apart here. A value given as a limit tells only on which side of the number the result lay.

Consider `C=CC(=O)N1CCN(c2nc(OC[C@@H]3CCCN3C)nc3c2CCN(c2cccnc2C(F)(F)F)C3)CC1CC#N` (stereo partly drawn) [Example 226, 2-(1-acryloyl-4-(2-(((S)-1-methylpyrrolidin-2-yl)methoxy)-7-(2-(trifluoromethyl)pyridin-3-yl)-5,6,7,8-tetrahydropyrido[3,4-d]pyrimidin-4-yl)piperazin-2-yl)acetonitrile], for which the IC50 in assay [1] (NCI-H358, 3 h) is 0.0001 to 1 µM. The POC entry in assay [2] is “C (“C”>50% POC)”.
For `C=CC(=O)N1CCN(c2nc(OC[C@@H]3CCCN3C)nc3c2CCN(c2ccccc2F)C3)CC1CC#N` (stereo partly drawn) [Example 227, 2-(1-acryloyl-4-(7-(2-fluorophenyl)-2-(((S)-1-methylpyrrolidin-2-yl)methoxy)-5,6,7,8-tetrahydropyrido[3,4-d]pyrimidin-4-yl)piperazin-2-yl)acetonitrile], in that order: 0.0001 to 1 µM and “A (“A”≤25% POC)”.
Taken in the same sequence, the figures for `C=CC(=O)N1CCN(c2nc(OC[C@@H]3CCCN3C)nc3c2CCN(c2cccc(C)c2C)C3)CC1CC#N` (stereo partly drawn) [Example 228, 2-(1-acryloyl-4-(7-(2,3-dimethylphenyl)-2-(((S)-1-methylpyrrolidin-2-yl)methoxy)-5,6,7,8-tetrahydropyrido[3,4-d]pyrimidin-4-yl)piperazin-2-yl)acetonitrile] were 0.0001 to 1 µM and “C (“C”>50% POC)”.
Turning to `C=CC(=O)N1CCN(c2nc(OC[C@@H]3CCCN3C)nc3c2CCN(c2ccccc2Cl)C3)CC1CC#N` (stereo partly drawn) [Example 229, 2-(1-acryloyl-4-(7-(2-chlorophenyl)-2-(((S)-1-methylpyrrolidin-2-yl)methoxy)-5,6,7,8-tetrahydropyrido[3,4-d]pyrimidin-4-yl)piperazin-2-yl)acetonitrile], the IC50 in assay [1] (NCI-H358, 3 h) lay in the range of 0.0001 to 1 µM. In addition, the POC entry in assay [2] is reported as “C (“C”>50% POC)”.
In the case of `C=CC(=O)N1CCN(c2nc(OC[C@@H]3CCCN3C)nc3c2CCN(c2cccc(F)c2C(F)(F)F)C3)CC1CC#N` (stereo partly drawn) [Example 230, 2-(1-acryloyl-4-(7-(3-fluoro-2-(trifluoromethyl)phenyl)-2-(((S)-1-methylpyrrolidin-2-yl)methoxy)-5,6,7,8-tetrahydropyrido[3,4-d]pyrimidin-4-yl)piperazin-2-yl)acetonitrile], the 50% inhibitory concentration (IC50) in assay [1] (NCI-H358, 3 h) lay within 0.0001 to 1 µM. In addition, in assay [2], the POC result is “C (“C”>50% POC)”.
As to `C=CC(=O)N1CCN(c2nc(OCCCO)nc3c2CCN(c2cccc4ccccc24)C3)CC1CC#N` (stereo not shown) [Example 231, 2-(1-acryloyl-4-(2-(3-hydroxypropoxy)-7-(naphthalen-1-yl)-5,6,7,8-tetrahydropyrido[3,4-d]pyrimidin-4-yl)piperazin-2-yl)acetonitrile], the concentration for half-maximal inhibition (IC50) in assay [1] fell in the range of 0.0001 to 1 µM. For the same compound, the POC result in assay [2] is “C (“C”>50% POC)”.
`C=CC(=O)N1CCN(c2nc(OCCCN3CCOCC3)nc3c2CCN(c2cc(O)cc(Cl)c2F)C3)CC1` [Example 232, 1-(4-(7-(3-chloro-2-fluoro-5-hydroxyphenyl)-2-(3-morpholinopropoxy)-5,6,7,8-tetrahydropyrido[3,4-d]pyrimidin-4-yl)piperazin-1-yl)prop-2-en-1-one]: in assay [1], the 50% inhibitory concentration (IC50) is above 1 µM. Besides, in assay [2], the POC entry was “C (“C”>50% POC)”.
Take `C=CC(=O)N1CCN(c2nc(OC[C@@H]3CCCN3CC)nc3c2CCN(c2cccc4ccccc24)C3)CC1CC#N` (stereo partly drawn) [Example 233, 2-(1-acryloyl-4-(2-(((S)-1-ethylpyrrolidin-2-yl)methoxy)-7-(naphthalen-1-yl)-5,6,7,8-tetrahydropyrido[3,4-d]pyrimidin-4-yl)piperazin-2-yl)acetonitrile]: in assay [1] (NCI-H358, 3 h), the 50% inhibitory concentration (IC50) fell in the range of 0.0001 to 1 µM. For the same compound, in assay [2], the POC entry is “C (“C”>50% POC)”.
Regarding `C=CC(=O)N1CCN(c2nc(OC[C@@H]3CCCN3C)nc3c2CCN(c2cccc4ccccc24)C3)C[C@@H]1CC#N` [Example 234, 2-((S)-1-acryloyl-4-(2-(((S)-1-methylpyrrolidin-2-yl)methoxy)-7-(naphthalen-1-yl)-5,6,7,8-tetrahydropyrido[3,4-d]pyrimidin-4-yl)piperazin-2-yl)acetonitrile], the IC50 in assay [1] was in the range of 0.0001 to 1 µM. The POC result in assay [2] is reported as “C (“C”>50% POC)”.
With `CN(C)C/C=C/C(=O)N1CCN(c2nc(OC[C@@H]3CCCN3C)nc3c2CCN(c2cccc4ccccc24)C3)C[C@@H]1CC#N` [Example 235, 2-((S)-1-((E)-4-(dimethylamino)but-2-enoyl)-4-(2-(((S)-1-methylpyrrolidin-2-yl)methoxy)-7-(naphthalen-1-yl)-5,6,7,8-tetrahydropyrido[3,4-d]pyrimidin-4-yl)piperazin-2-yl)acetonitrile], in assay [1] (NCI-H358, 3 h), the IC50 fell in the range of 0.0001 to 1 µM. For the same compound, the POC entry in assay [2] is “C (“C”>50% POC)”.
For `CN1CCC[C@H]1COc1nc2c(c(N3CCN(C(=O)/C=C/CN4CCCCC4)[C@@H](CC#N)C3)n1)CCN(c1cccc3ccccc13)C2` [Example 236, 2-((S)-4-(2-(((S)-1-methylpyrrolidin-2-yl)methoxy)-7-(naphthalen-1-yl)-5,6,7,8-tetrahydropyrido[3,4-d]pyrimidin-4-yl)-1-(E-4-(piperidin-1-yl)but-2-enoyl)piperazin-2-yl)acetonitrile], the IC50 in assay [1] (NCI-H358, 3 h) lay within 0.0001 to 1 µM. Besides, the POC entry in assay [2] was “C (“C”>50% POC)”.
For `C=CC(=O)N1CCN(c2nc(OC[C@@H]3CCCN3C)nc3c2CCN(c2ccccc2C(F)(F)F)C3)C[C@@H]1CC#N` [Example 237, 2-((S)-1-acryloyl-4-(2-(((S)-1-methylpyrrolidin-2-yl)methoxy)-7-(2-(trifluoromethyl)phenyl)-5,6,7,8-tetrahydropyrido[3,4-d]pyrimidin-4-yl)piperazin-2-yl)acetonitrile 2,2,2-trifluoroacetate], in that order: 0.0001 to 1 µM and “C (“C”>50% POC)”.
For `C=CC(=O)N1CCN(c2nc(OC[C@@H]3CCCN3C)nc3c2CCN(c2c(C)ccc4cn[nH]c24)C3)CC1CC#N` (stereo partly drawn) [Example 238, 2-(1-acryloyl-4-(7-(6-methyl-1H-indazol-7-yl)-2-(((S)-1-methylpyrrolidin-2-yl)methoxy)-5,6,7,8-tetrahydropyrido[3,4-d]pyrimidin-4-yl)piperazin-2-yl)acetonitrile], in that order: 0.0001 to 1 µM and “C (“C”>50% POC)”.
Taken in the same sequence, the figures for `C=CC(=O)N1CCN(c2nc(OC[C@@H]3CCCN3C)nc3c2CCN(c2ccncc2C(F)(F)F)C3)CC1CC#N` (stereo partly drawn) [Example 239, 2-(1-acryloyl-4-(2-(((S)-1-methylpyrrolidin-2-yl)methoxy)-7-(3-(trifluoromethyl)pyridin-4-yl)-5,6,7,8-tetrahydropyrido[3,4-d]pyrimidin-4-yl)piperazin-2-yl)acetonitrile] were above 1 µM and “C (“C”>50% POC)”.
Take `C=CC(=O)N1CCN(c2nc(OC[C@@H]3CCCN3C)nc3c2CCN(c2ccccc2CC(F)(F)F)C3)CC1CC#N` (stereo partly drawn) [Example 240, 2-(1-acryloyl-4-(2-(((S)-1-methylpyrrolidin-2-yl)methoxy)-7-(2-(2,2,2-trifluoroethyl)phenyl)-5,6,7,8-tetrahydropyrido[3,4-d]pyrimidin-4-yl)piperazin-2-yl)acetonitrile]: the IC50 in assay [1] (NCI-H358, 3 h) was above 1 µM. The POC result in assay [2] was “C (“C”>50% POC)”.
For `CN1CCC[C@H]1COc1nc2c(c(N3CCN(C(=O)OCc4ccccc4)C(CC#N)C3)n1)CCN(c1ncccc1C(F)(F)F)C2` (stereo partly drawn) [Example 241, benzyl 2-(cyanomethyl)-4-(2-(((S)-1-methylpyrrolidin-2-yl)methoxy)-7-(3-(trifluoromethyl)pyridin-2-yl)-5,6,7,8-tetrahydropyrido[3,4-d]pyrimidin-4-yl)piperazine-1-carboxylate], in that order: above 1 µM and “C (“C”>50% POC)”.
In the case of `C=CC(=O)N1CCN(c2nc(OC[C@H]3CCCN3C)nc3c2CCN(c2c(C(F)(F)F)ccc4[nH]ncc24)C3)CC1CC#N` (stereo partly drawn) [Example 243, 2-[4-[2-[[(2R)-1-methylpyrrolidin-2-yl]methoxy]-7-[5-(trifluoromethyl)-1H-indazol-4-yl]-6,8-dihydro-5H-pyrido[3,4-d]pyrimidin-4-yl]-1-prop-2-enoyl-piperazin-2-yl]acetonitrile], the IC50 in assay [1] (NCI-H358, 3 h) lay in the range of 0.0001 to 1 µM. Also, the POC entry in assay [2] was “C (“C”>50% POC)”.
On to `C=CC(=O)N1CCN(c2nc(OC[C@@H]3CCCN3C)nc3c2CCN(c2cccc4ccc(C)cc24)C3)CC1CC#N` (stereo partly drawn) [Example 245, 2-[4-[7-(7-methyl-1-naphthyl)-2-[[(2S)-1-methylpyrrolidin-2-yl]methoxy]-6,8-dihydro-5H-pyrido[3,4-d]pyrimidin-4-yl]-1-prop-2-enoyl-piperazin-2-yl]acetonitrile], for which the IC50 in assay [1] was in the range of 0.0001 to 1 µM. Also, the POC entry in assay [2] is listed as “C (“C”>50% POC)”.
On to `C=CC(=O)N1CCN(c2nc(OC[C@@H]3CCCN3C)nc3c2CCN(c2ccc(F)c4ccccc24)C3)CC1CC#N` (stereo partly drawn) [Example 246, 2-[4-[7-(4-fluoro-1-naphthyl)-2-[[(2S)-1-methylpyrrolidin-2-yl]methoxy]-6,8-dihydro-5H-pyrido[3,4-d]pyrimidin-4-yl]-1-prop-2-enoyl-piperazin-2-yl]acetonitrile], for which, in assay [1] (NCI-H358, 3 h), the half-inhibitory concentration (IC50) was in the range of 0.0001 to 1 µM. Also, the POC result in assay [2] was “C (“C”>50% POC)”.
For `C=CC(=O)N1CCN(c2nc(OC[C@@H]3CCCN3C)nc3c2CCN(c2cccc4cccnc24)C3)CC1CC#N` (stereo partly drawn) [Example 247, 2-(1-acryloyl-4-(2-(((S)-1-methylpyrrolidin-2-yl)methoxy)-7-(quinolin-8-yl)-5,6,7,8-tetrahydropyrido[3,4-d]pyrimidin-4-yl)piperazin-2-yl)acetonitrile], in that order: above 1 µM and “C (“C”>50% POC)”.

These data come from patent publication US10125134B2 (Mirati Therapeutics, Inc., priority 2016, dated 2018).
